Test results reported in US8946302B2, “Selective sigma-1 receptor ligands” (Wisconsin Alumni Research Foundation, priority 2008, dated 2015).
“And” between values parts separate entries of the source, which are not always exact repeats. Equal entries are not always repeated. Where two headings read alike, the source gives them in different places.

Key:
sigma-1 receptor [1] = target: T1, sigma-1 receptor (Cavia porcellus, UniProt Q60492); experiment: Sigma-1 competitive binding, (+)-[3H]pentazocine, guinea pig liver membranes (Example 6); parameters: from tissue; host or cells: guinea pig liver membranes;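 note: compounds tested over serial concentrations, 45 min incubation at 30 °C with membrane preparations, read-out is displacement of bound radioligand from the receptor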
T1 sequence (Q60492 whole entry): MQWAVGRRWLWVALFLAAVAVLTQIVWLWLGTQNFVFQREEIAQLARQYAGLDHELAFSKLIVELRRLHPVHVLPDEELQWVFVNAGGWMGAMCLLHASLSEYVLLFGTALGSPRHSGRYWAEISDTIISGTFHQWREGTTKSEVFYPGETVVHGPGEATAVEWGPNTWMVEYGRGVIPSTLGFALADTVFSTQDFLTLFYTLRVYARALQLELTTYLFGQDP
Experimental: (§1) Minced frozen rat livers or guinea pig livers (65 g) were thawed in 100 mL homogenization buffer (10 mM phosphate buffer pH 7.4 containing 0.32M sucrose, 1 M MgSO4, 0.5 M EGTA, 1 mM phenylmethylsulphonyl fluoride (PMSF), 10 μg/mlleupeptin, 1 μg/ml pepstatin A, 10 μg/ml p-toluenesulfonyl-L-arginine methyl ester (TAME) and then homogenized on ice with a Brinkman polytron homogenizer (setting 6, 4 bursts of 10 second each) followed by a glass homogenizer (Teflon pestle by 6 slow passes at 3,000 rpm). The homogenized tissues were then centrifuged at 17,000 g for 10 minutes. The supernatants were re-centrifuged at 100,000 g for 1 hour. The microsomal pellets were resuspended in homogenization buffer, snap frozen with dry ice-ethanol, and stored at −80° C. at a final protein concentration of 20 mg/mL.
(§2) Assays for sigma-1 were performed using 10 nM (+)-[^3H]pentazocine in guinea pig liver homogenates (25 μg/well) incubated at 30° C. for 1 hour with several concentrations of competing ligands. After incubation, membranes were harvested on a 0.5% PEI-treated Whatman GF/B filters using a Brandel Cell Harvester. (+)-[^3H]pentazocine binding was determined by liquid scintillation counting. […] Serial concentrations of the compounds evaluated were added to the reactions for 45 minutes at 30° C. and the samples vacuum filtered through 0.5% polyethyleneimine (PEI) treated Whatman GF/B as described above to measure displacement of the radioligands from the sigma receptor subtypes.

sigma-2 receptor = target: T2, sigma-2 receptor (Rattus norvegicus, UniProt Q5U3Y7); experiment: Sigma-2 competitive binding, [3H]-DTG with (+)-pentazocine, rat liver membranes (Example 6); parameters: from tissue; host or cells: rat liver membranes
T2 sequence (Q5U3Y7 1-176): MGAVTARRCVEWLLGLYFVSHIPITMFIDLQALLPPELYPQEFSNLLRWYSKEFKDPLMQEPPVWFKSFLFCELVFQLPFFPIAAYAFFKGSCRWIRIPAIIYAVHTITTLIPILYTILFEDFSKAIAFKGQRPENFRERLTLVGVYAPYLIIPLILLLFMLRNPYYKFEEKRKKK
Experimental: as §1, §2

[2] = target: T3, purified sigma-1 receptor (Cavia porcellus, UniProt Q60492); experiment: Competitive displacement of [3H]-(+)-pentazocine at the pure sigma-1 receptor; type: binding, guinea pig; conditions: read-out: Ki Pure σ-1R
T3 construct: made in house; host or cells: E. coli BL21 DE3
T3 sequence (Q60492 whole entry): as the sequence (Q60492 whole entry) above
Experimental: A guinea pig sigma-1 receptor was purified as previously described (Ramachandran et al., Protein Expr. Purif., 2007. 51(2): 283-92). The pMal P2X plasmid (New England Biolabs) encoding the guinea pig sigma-1 receptor on the C-terminus of the E. coli Maltose Binding Protein was used for purification. The sigma-1 receptor on its C-terminus carried a hexa-histadine epitope tag. Protein was expressed in the E. coli strain BL21 DE3 (Novagen) with 0.6 mM IPTG. The E. coli pellet was sonicated and centrifuged at 100,000 g for 1 hour to separate the particulate and soluble fractions. The particulate fraction was extracted with Triton X-100, centrifuged and the extract was loaded onto an amylose resin (New England Biolabs, E-802). After washing the resin with buffer containing 0.5% Triton X-100, the MBP-sigma-1 receptor fusion protein was eluted with buffer containing 10 mM maltose.
The MBP-sigma-1-receptor fusion protein was cleaved with Factor Xa protease (Novagen) at room temperature for 24-48 hours and the cleavage was monitored with SDS-polyacrylamide gel electrophoresis. The sigma-1 receptor from the Factor Xa cleavage was purified with a HIS-Select HC Nickel affinity gel (Sigma-Aldrich P6611) in a batch format. The resin was washed with buffer containing 0.5% Triton X-100 detergent and the beads were separated by a brief centrifugation at 4000 rpm in a microcentrifuge. After washing to remove MBP, the pure sigma-1 receptor was eluted in buffer containing 250 mM imidazole.
To remove the undigested MBP-sigma-1 receptor fusion protein that is carried over in the Ni^2+ purification, the eluate from the Ni^2+ purification was incubated with Anti-MBP antibody conjugated to agarose (Vector Laboratories, Burlingame, Calif.) at 4° C. for 18-24 hours. The beads were separated by centrifugation and the supernatant contained the pure sigma-1 receptor.
Competition ligand binding to the pure sigma-1 receptor was performed as previously described. […] After incubation at 30° C. for 60 minutes, the reaction was terminated by rapid filtration through glass fiber filters (Whatman GF/B), using a Brandel cell harvester (Brandel, Gaithersburg, Md.). The glass fiber filters were pre-soaked in 0.5% polyethyleneimine (PEI) for at least 1 hour at room temperature (˜23° C.). Filters were washed 4 times with 4 mL of ice-cold 50 mM Tris-C1, pH 8.0. Radioactivity was quantified by liquid scintillation counting using a Packard model 1600 CA scintillation counter.

sigma-1 receptor [3] = target: T1, sigma-1 receptor; experiment: Affinity for the sigma-1 receptor (Table 3); type: binding; parameters: from tissue
tumor cell lines = experiment: Cytotoxicity assays, various tumor cell lines (statements in words); type: cell-based, human
Experimental: Because sigma-1 receptors are overexpressed in numerous tumor cell lines, which include breast cancer, lung carcinoma, renal carcinoma, colon carcinoma, sarcoma, brain tumors, melanoma, glioblastoma, neuroblastoma, and prostate cancer, the ability of the compounds to inhibit the growth of various tumor cell lines were tested.
Multi-plex cytotoxicity assays were performed by the Keck-UWCCC Small Molecule Screening Facility (Madison, Wis.). Specific methodology can be found online at http://hts.wisc.edu/Resources.htm#mpa.

σ-2 Sites = target: T4, σ-2 Sites (Rattus norvegicus, UniProt Q5U3Y7); experiment: σ-2 sites radioligand binding, rat liver membranes (Table 2)
T4 construct: from tissue
T4 sequence (Q5U3Y7 1-176): T2 sequence (Q5U3Y7 1-176)
Experimental: as §2

σ-1 Sites = target: T5, σ-1 Sites (Cavia porcellus, UniProt Q60492); experiment: σ-1 sites radioligand binding, guinea pig liver membranes (Table 2); conditions: for Ki: guinea pig liver membranes; for σ-1 selectivity σ-2 Ki/σ-1 Ki: σ-2 rat liver / σ-1 guinea pig liver membranes
T5 construct: from tissue
T5 sequence (Q60492 whole entry): as the sequence (Q60492 whole entry) above
Experimental: as §2

[4] = rat liver membranes, n = 3, read-out: Sigma2 KD values

`CCCC[N+](CCCC)(CCCC)CCCC` [Compound 3] was tested, and the Kd (sigma-1 receptor [1]) was 54700 nM, the “Ratio (σ2/σ1)” value (sigma-1 receptor [1]) was 4.90 and the Kd (sigma-2 receptor) was 268000 nM.

In the case of `CCCCCCCCCCCCCCCCCCN` [Stearylamine], the Ki ([2]; [3H]-(+)-pentazocine 10 nM) is reported as 8500 nM and 8000 nM.

For `CCCCN(CCCC)CCCc1ccc(F)cc1` [HD1], the Kd (sigma-1 receptor [3]; read-out: Sigma-1 KD) was 17.7 nM.

`CCCCCCCNCCCc1ccccc1` [UC1] gave a Kd (sigma-1 receptor [3]; read-out: Sigma-1 KD) of 12 nM.

With `CCCCCCCCCCCCNCCCc1ccccc1` [UC3] the Kd (sigma-1 receptor [3]; read-out: Sigma-1 KD) was 92 nM.

For `CCCCCCCCN` [Octylamine], the Ki ([2]; [3H]-(+)-pentazocine 10 nM) was 5600 nM and 6000 nM.

For `CCCN(CCCc1ccc(F)cc1)CCc1ccc(N=[N+]=[N-])c(I)c1` [HD5], the “cytotoxicity / tumor cell growth inhibition” value (tumor cell lines) was “potent cell growth inhibitor of both MB-MDA-231 and MCF7”.

With `CCCCCCCCN(CCCCCCCC)CCCc1ccc(F)cc1` [Compound 8, N,N-Dioctyl-3-(4-fluorophenyl)propylamine] the “Ratio (σ2/σ1)” value (sigma-1 receptor [1]) was 2.49 and the Kd (sigma-2 receptor; [4]) was 1650 nM.

With `CCCN(CCCc1ccc(F)cc1)Cc1ccc(N)c(I)c1` [Compound 14, N-Propyl-N-(4-amino-3-iodo-benzyl)-3-(4-fluorophenyl)propylamine] the “Ratio (σ2/σ1)” value (sigma-1 receptor [1]) was 0.3389, the Kd (sigma-1 receptor [1]; guinea pig liver membranes, n = 3, read-out: Sigma 1 KD values) was 393000 nM and the Kd (sigma-2 receptor; [4]) was 133000 nM.

`CCCCCCCCCCCCCCCCCCNCCCc1ccc([N+](=O)[O-])cc1` [Compound 1h, N-(3-(4-Nitrophenyl)propyl)octadecan-1-amine] gave a Ki (σ-2 Sites) of 8830 nM, a Ki ([2]; [3H]-(+)-pentazocine) of 41.5 nM and a Ki (σ-1 Sites) of 26900 nM. The “σ-1 selectivity σ-2 Ki/σ-1 Ki” value (σ-1 Sites) was 0.3.

In the case of `CCCCCCCCCCCCNCCCc1ccccc1` [Compound 1e, N-(3-Phenylpropyl)dodecan-1-amine], the Ki (σ-2 Sites) is reported as 2100 nM, the Ki ([2]; [3H]-(+)-pentazocine) is reported as 63.2 nM and the Ki (σ-1 Sites) is reported as 5300 nM.

With `CCCCNCCCc1ccc([N+](=O)[O-])cc1` [Compound 1b, N-(3-(4-Nitrophenyl)propyl)butan-1-amine] the Ki (σ-2 Sites) was 22 nM, the Ki ([2]; [3H]-(+)-pentazocine) was 20 nM and the Ki (σ-1 Sites) was 3 nM. The “σ-1 selectivity σ-2 Ki/σ-1 Ki” value (σ-1 Sites) was 7.

Compound `CCCCCCCCCCCCNCCCc1ccc([N+](=O)[O-])cc1` [Compound 1f, N-(3-(4-Nitrophenyl)propyl)dodecan-1-amine] has a Ki (σ-2 Sites) of 2380 nM, a Kd (sigma-1 receptor [3]; read-out: Sigma-1 KD) of 0.39 nM and a Ki ([2]; [3H]-(+)-pentazocine) of 31.8 nM. The Ki (σ-1 Sites) was 5170 nM and the “cytotoxicity / tumor cell growth inhibition” value (tumor cell lines) was “remarkable activity for inhibiting tumor growth”.

With `CCCCCCCNCCCc1ccc([N+](=O)[O-])cc1` [Compound 1d, N-(3-(4-Nitrophenyl)propyl)heptane-1-amine] the Ki (σ-2 Sites) was 11 nM, the Kd (sigma-1 receptor [3]; read-out: Sigma-1 KD) was 5.7 nM and the Ki ([2]; [3H]-(+)-pentazocine) was 7.5 ± 1.2 nM. The Ki (σ-1 Sites) was 10 nM, the “σ-1 selectivity σ-2 Ki/σ-1 Ki” value (σ-1 Sites) was 1 and the “cytotoxicity / tumor cell growth inhibition” value (tumor cell lines) was “remarkable activity for inhibiting tumor growth”.

`CCCN(CCCc1ccc(F)cc1)Cc1ccc(N=[N+]=[N-])c(I)c1` [Compound 15] was tested, and the “Ratio (σ2/σ1)” value (sigma-1 receptor [1]) was 570.8 ^.

In the case of `CCCCN(CCCC)CCCc1ccc([N+](=O)[O-])cc1` [HD2], the Kd (sigma-1 receptor [3]; read-out: Sigma-1 KD) is reported as 0.36 nM.

With `CCCN(CCC)CCc1c[nH]c2ccccc12` [DPT, reference compound] the Kd (sigma-1 receptor [3]) was 1600 nM.
